Assay results as given in PMC6100082, “Pyridine-Ureas as Potential Anticancer Agents: Synthesis and In Vitro Biological Evaluation” (Molecules : A Journal of Synthetic Chemistry and Natural …, 2018).

Assays:
[1] = test system: non-tumorigenic human lung fibroblast WI-38 cell line; experiment: Cytotoxic activity against non-tumorigenic cells, MTT assay; assay type: cell-based; details: WI-38, MTT
Protocol: The cytotoxic activity of compounds 8b and 8e were evaluated against non-tumorigenic human lung fibroblast WI-38 cell line utilizing the MTT colorimetric assay developed by T. Mosmann (Table 3).
MCF-7 (human breast cancer cell line) and WI-38 (human lung fibroblast cell line), were obtained from American Type Culture Collection (Manassas, VA, USA). The cells were propagated in DMEM and supplemented with 10% heat-inactivated FBS (Hyclone), 10 μg/mL of insulin (Manufacturer, Sigma, St. Louis, MO, USA), and 1% penicillin-streptomycin. MTT assay was utilized to examine the in vitro anti-proliferative activity of the newly prepared ureas following the reported procedures. […] The data presented are the mean of at least three separate experiments.

[2] = test system: COLO 205; experiment: NCI one-dose SRB assay (Colon Cancer); assay type: cell-based, human; details: for Growth Percent: COLO 205, 1.00E-5 Molar; for inhibition at 10 µM: Homo sapiens, COLO 205, 10 μM, read-out: Percentage growth inhibition (GI%)
Protocol: (§1) The structures of all the newly prepared pyridine-ureas 8a–n were submitted to the National Cancer Institute (NCI) Developmental Therapeutic Program. Eight compounds 8b, 8d, 8e, 8i, 8j and 8l–n were selected to be examined for their in vitro growth inhibitory activity. The anticancer assays were carried out according to the protocol of the Drug Evaluation Branch, NCI, Bethesda. The selected pyridine-ureas were tested at one dose primary anticancer assay against a panel of approximately 58 cancer lines (concentration 10^−5 M). The tested human cancer cell lines emerged from nine different cancer subtypes: leukemia, colon, melanoma, ovarian, lung, CNS, renal, breast and prostate cancers. The sulforhodamine B (SRB) protein assay was adopted to estimate the cell viability and growth. The results were reported as mean-graph of the percentage growth of the treated cells, and presented as percentage growth inhibition (GI%) caused by the test compounds (Table 2).
(§2) The anticancer assays were performed in accordance with the protocol of the Drug Evaluation Branch, NCI, Bethesda. A 48 h drug exposure protocol was used and sulforhodamine B (SRB) protein assay was applied to estimate the cell viability and growth, as reported earlier.

[3] = test system: HCC-2998; experiment: NCI one-dose SRB assay (Colon Cancer); assay type: cell-based, human; details: for Growth Percent: HCC-2998, 1.00E-5 Molar; for inhibition at 10 µM: Homo sapiens, HCC-2998, 10 μM, read-out: Percentage growth inhibition (GI%)
Protocol: as §1, §2

[4] = test system: HCT-116; experiment: NCI one-dose SRB assay (Colon Cancer); assay type: cell-based, human; details: for Growth Percent: HCT-116, 1.00E-5 Molar; for inhibition at 10 µM: Homo sapiens, HCT-116, 10 μM, read-out: Percentage growth inhibition (GI%)
Protocol: as §1, §2

[5] = test system: HCT-15; experiment: NCI one-dose SRB assay (Colon Cancer); assay type: cell-based, human; details: for Growth Percent: HCT-15, 1.00E-5 Molar; for inhibition at 10 µM: Homo sapiens, HCT-15, 10 μM, read-out: Percentage growth inhibition (GI%)
Protocol: as §1, §2

[6] = test system: HT29; experiment: NCI one-dose SRB assay (Colon Cancer); assay type: cell-based, human; details: for Growth Percent: HT29, 1.00E-5 Molar; for inhibition at 10 µM: Homo sapiens, HT-29, HT29, 10 μM, read-out: Percentage growth inhibition (GI%)
Protocol: as §1, §2

[7] = test system: KM12; experiment: NCI one-dose SRB assay (Colon Cancer); assay type: cell-based, human; details: for inhibition at 10 µM: Homo sapiens, KM12, 10 μM, read-out: Percentage growth inhibition (GI%); for Growth Percent: KM12, 1.00E-5 Molar
Protocol: as §1, §2

[8] = test system: SW-620; experiment: NCI one-dose SRB assay (Colon Cancer); assay type: cell-based, human; details: for inhibition at 10 µM: Homo sapiens, SW-620, 10 μM, read-out: Percentage growth inhibition (GI%); for Growth Percent: SW-620, 1.00E-5 Molar
Protocol: as §1, §2

[9] = test system: DU-145; experiment: NCI one-dose SRB assay (Prostate); assay type: cell-based, human; details: for Growth Percent: DU-145, 1.00E-5 Molar; for inhibition at 10 µM: Homo sapiens, DU-145, 10 μM, read-out: Percentage growth inhibition (GI%)
Summary of the method: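 Tested once at 10^−5 M over 48 h. SRB protein staining measured growth. GI% values.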

[10] = test system: BT-549; experiment: NCI one-dose SRB assay (Breast Cancer); assay type: cell-based, human; details: for Growth Percent: BT-549, 1.00E-5 Molar; for inhibition at 10 µM: Homo sapiens, BT-549, 10 μM, read-out: Percentage growth inhibition (GI%)
Protocol: as §1, §2

[11] = test system: HS 578T; experiment: NCI one-dose SRB assay (Breast Cancer); assay type: cell-based, human; details: for Growth Percent: 1.00E-5 Molar; for inhibition at 10 µM: Homo sapiens, read-out: Percentage growth inhibition (GI%)
Protocol: as §1, §2

[12] = test system: MCF7; experiment: NCI one-dose SRB assay (Breast Cancer); assay type: cell-based, human; details: for inhibition at 10 µM: Homo sapiens, MCF7, 10 μM, read-out: Percentage growth inhibition (GI%); for Growth Percent: MCF7, 1.00E-5 Molar
Protocol: as §1, §2

[13] = test system: MDA-MB-231; experiment: NCI one-dose SRB assay (Breast Cancer); assay type: cell-based, human; details: for inhibition at 10 µM: Homo sapiens, MDA-MB-231, 10 μM, read-out: Percentage growth inhibition (GI%); for Growth Percent: MDA-MB-231/ATCC, 1.00E-5 Molar
Protocol: as §1, §2

[14] = test system: MDA-MB-468; experiment: NCI one-dose SRB assay (Breast Cancer); assay type: cell-based, human; details: for inhibition at 10 µM: Homo sapiens, MDA-MB-468, 10 μM, read-out: Percentage growth inhibition (GI%); for Growth Percent: MDA-MB-468, 1.00E-5 Molar
Protocol: as §1, §2

[15] = test system: T-47D; experiment: NCI one-dose SRB assay (Breast Cancer); assay type: cell-based, human; details: for Growth Percent: 1.00E-5 Molar; for inhibition at 10 µM: Homo sapiens, T47D, read-out: Percentage growth inhibition (GI%)
Protocol: as §1, §2

[16] = molecular target: VEGFR-2 (Homo sapiens, UniProt P35968); experiment: VEGFR-2 inhibitory assay (Alpha Screen, anti-phosphotyrosine antibody)
Sequence of VEGFR-2 (P35968 20-1356, species assumed): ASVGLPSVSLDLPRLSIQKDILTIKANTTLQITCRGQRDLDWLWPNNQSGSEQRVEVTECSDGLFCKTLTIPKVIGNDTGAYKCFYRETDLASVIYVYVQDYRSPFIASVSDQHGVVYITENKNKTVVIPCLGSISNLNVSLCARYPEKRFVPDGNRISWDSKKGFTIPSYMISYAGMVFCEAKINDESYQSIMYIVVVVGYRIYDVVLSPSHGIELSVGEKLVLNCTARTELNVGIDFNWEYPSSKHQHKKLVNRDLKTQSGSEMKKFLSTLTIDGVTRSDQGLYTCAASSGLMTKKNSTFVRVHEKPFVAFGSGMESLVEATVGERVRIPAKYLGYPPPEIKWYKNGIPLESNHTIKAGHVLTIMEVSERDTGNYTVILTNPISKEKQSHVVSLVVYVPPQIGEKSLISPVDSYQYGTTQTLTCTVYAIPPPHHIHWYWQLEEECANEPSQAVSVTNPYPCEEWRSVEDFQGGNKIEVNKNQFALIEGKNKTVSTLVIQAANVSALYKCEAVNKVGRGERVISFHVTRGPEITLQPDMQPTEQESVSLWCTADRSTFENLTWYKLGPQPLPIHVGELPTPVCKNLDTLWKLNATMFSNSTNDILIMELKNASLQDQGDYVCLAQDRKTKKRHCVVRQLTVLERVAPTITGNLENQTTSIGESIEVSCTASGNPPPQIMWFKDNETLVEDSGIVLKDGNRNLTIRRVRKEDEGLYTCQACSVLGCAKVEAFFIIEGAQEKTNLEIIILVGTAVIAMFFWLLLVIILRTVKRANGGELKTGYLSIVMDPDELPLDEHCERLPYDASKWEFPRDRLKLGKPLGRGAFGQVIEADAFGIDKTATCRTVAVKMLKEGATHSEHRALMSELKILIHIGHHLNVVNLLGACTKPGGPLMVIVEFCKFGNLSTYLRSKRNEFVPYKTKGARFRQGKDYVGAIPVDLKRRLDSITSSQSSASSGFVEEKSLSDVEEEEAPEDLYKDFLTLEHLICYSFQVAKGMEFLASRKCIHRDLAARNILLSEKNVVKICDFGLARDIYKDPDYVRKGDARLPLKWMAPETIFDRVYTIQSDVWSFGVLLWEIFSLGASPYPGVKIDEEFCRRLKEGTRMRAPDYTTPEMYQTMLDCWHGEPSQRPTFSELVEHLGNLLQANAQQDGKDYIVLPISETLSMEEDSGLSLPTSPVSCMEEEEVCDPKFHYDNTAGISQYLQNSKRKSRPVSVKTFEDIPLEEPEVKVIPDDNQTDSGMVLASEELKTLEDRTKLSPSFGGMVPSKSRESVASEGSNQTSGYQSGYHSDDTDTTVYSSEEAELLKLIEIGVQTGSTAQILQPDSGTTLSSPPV

SMILES: COc1ccc(-c2ccc(NC(=O)Nc3cccc(C(F)(F)F)c3)c(C)n2)cc1 [Compound 8b, 1-(6-(4-Methoxyphenyl)-2-methylpyridin-3-yl)-3-(3-(trifluoromethyl)phenyl) Urea]
- IC50 [1]: 91.5 ± 4.53 µM
- Growth Percent [2]: 84.52%
- inhibition at 10 µM [2]: 16%
- Growth Percent [3]: 81.09%
- inhibition at 10 µM [3]: 19%
- Growth Percent [4]: 26.93%
- inhibition at 10 µM [4]: 74%
- Growth Percent [5]: 40.87%
- inhibition at 10 µM [5]: 60%
- Growth Percent [6]: 47.65%
- inhibition at 10 µM [6]: 53%
- inhibition at 10 µM [7]: 55%
- Growth Percent [7]: 45.61%
- inhibition at 10 µM [8]: 19%
- Growth Percent [8]: 81.01%
- Growth Percent [9]: 68.79%
- inhibition at 10 µM [9]: 32%
- Growth Percent [10]: 66.40%
- inhibition at 10 µM [10]: 34%
- Growth Percent [11]: 88.85%
- inhibition at 10 µM [11]: 12%
- inhibition at 10 µM [12]: 59%
- Growth Percent [12]: 41.47%
- inhibition at 10 µM [13]: 32%
- Growth Percent [13]: 68.55%
- inhibition at 10 µM [14]: 73%
- Growth Percent [14]: 27.53%
- Growth Percent [15]: 26.51%
- inhibition at 10 µM [15]: 74%
- IC50 [16]: 5 ± 1.91 µM

SMILES: COc1ccc(-c2ccc(NC(=O)Nc3ccc(Cl)c(C(F)(F)F)c3)c(C)n2)cc1 [Compound 8e, 1-(4-Chloro-3-(trifluoromethyl)phenyl)-3-(6-(4-methoxyphenyl)-2-methylpyridin-3-yl)urea]
- IC50 [1]: 83.1 ± 5.21 µM
- Growth Percent [2]: 80.09%
- inhibition at 10 µM [2]: 20%
- Growth Percent [3]: 69.17%
- inhibition at 10 µM [3]: 31%
- Growth Percent [4]: 23.73%
- inhibition at 10 µM [4]: 77%
- Growth Percent [5]: 37.80%
- inhibition at 10 µM [5]: 63%
- Growth Percent [6]: 46.44%
- inhibition at 10 µM [6]: 54%
- inhibition at 10 µM [7]: 63%
- Growth Percent [7]: 37.36%
- inhibition at 10 µM [8]: 33%
- Growth Percent [8]: 67.04%
- Growth Percent [9]: 54.52%
- inhibition at 10 µM [9]: 46%
- Growth Percent [10]: 66.19%
- inhibition at 10 µM [10]: 34%
- Growth Percent [11]: 76.98%
- inhibition at 10 µM [11]: 24%
- inhibition at 10 µM [12]: 64%
- Growth Percent [12]: 36.68%
- inhibition at 10 µM [13]: 15%
- Growth Percent [13]: 85.04%
- inhibition at 10 µM [14]: 62%
- Growth Percent [14]: 38.52%
- Growth Percent [15]: 21.49%
- inhibition at 10 µM [15]: 79%
- IC50 [16]: 3.93 ± 0.73 µM

SMILES: COc1cccc(NC(=O)Nc2ccc(-c3ccc(OC)c(OC)c3)nc2C)c1 [Compound 8m, 1-(6-(3,4-Dimethoxyphenyl)-2-methylpyridin-3-yl)-3-(3-methoxyphenyl) Urea]
- Growth Percent [2]: 119.56%
- inhibition at 10 µM [2]: < 10%
- Growth Percent [3]: 97.15%
- inhibition at 10 µM [3]: < 10%
- Growth Percent [4]: 78.84%
- inhibition at 10 µM [4]: 22%
- Growth Percent [5]: 91.11%
- inhibition at 10 µM [5]: < 10%
- Growth Percent [6]: 75.95%
- inhibition at 10 µM [6]: 25%
- inhibition at 10 µM [7]: < 10%
- Growth Percent [7]: 96.43%
- inhibition at 10 µM [8]: < 10%
- Growth Percent [8]: 101.68%
- Growth Percent [9]: 99.53%
- inhibition at 10 µM [9]: < 10%
- Growth Percent [10]: 87.21%
- inhibition at 10 µM [10]: 13%
- Growth Percent [11]: 99.31%
- inhibition at 10 µM [11]: < 10%
- inhibition at 10 µM [12]: 10%
- Growth Percent [12]: 90.01%
- inhibition at 10 µM [13]: < 10%
- Growth Percent [13]: 106.37%
- inhibition at 10 µM [14]: < 10%
- Growth Percent [14]: 99.00%
- Growth Percent [15]: 81.11%
- inhibition at 10 µM [15]: 19%

SMILES: COc1ccc(NC(=O)Nc2ccc(-c3ccc(OC)c(OC)c3)nc2C)cc1 [Compound 8n, 1-(6-(3,4-Dimethoxyphenyl)-2-methylpyridin-3-yl)-3-(4-methoxyphenyl) Urea]
- Growth Percent [2]: 91.95%
- inhibition at 10 µM [2]: < 10%
- Growth Percent [3]: 83.10%
- inhibition at 10 µM [3]: 17%
- Growth Percent [4]: 49.40%
- inhibition at 10 µM [4]: 51%
- Growth Percent [5]: 91.77%
- inhibition at 10 µM [5]: < 10%
- Growth Percent [6]: 68.76%
- inhibition at 10 µM [6]: 32%
- inhibition at 10 µM [7]: 55%
- Growth Percent [7]: 45.29%
- inhibition at 10 µM [8]: 36%
- Growth Percent [8]: 64.84%
- Growth Percent [9]: 72.24%
- inhibition at 10 µM [9]: 28%
- Growth Percent [10]: 50.44%
- inhibition at 10 µM [10]: 50%
- Growth Percent [11]: 39.96%
- inhibition at 10 µM [11]: 61%
- inhibition at 10 µM [12]: 35%
- Growth Percent [12]: 65.14%
- inhibition at 10 µM [13]: 60%
- Growth Percent [13]: 40.48%
- inhibition at 10 µM [14]: 17%
- Growth Percent [14]: 83.00%
- Growth Percent [15]: 60.36%
- inhibition at 10 µM [15]: 40%
